According to the CheMixHub viscosity set:

Experiment: xn = mol fraction of the nth substance listed

c1ccccc1 + CCCO
Conditions	viscosity [mPa·s]
293.15 K, 101 kPa, x1 = 0.7	0.7259
295.15 K, 101 kPa, x2 = 0.0129	0.6231
295.15 K, 101 kPa, x2 = 0.01297	0.6234
295.15 K, 101 kPa, x2 = 0.02571	0.6203
295.15 K, 101 kPa, x2 = 0.0258	0.6203
295.15 K, 101 kPa, x2 = 0.02588	0.6203
295.15 K, 101 kPa, x2 = 0.03494	0.6193
295.15 K, 101 kPa, x2 = 0.04358	0.6193
295.15 K, 101 kPa, x2 = 0.06103	0.6204
295.15 K, 101 kPa, x2 = 0.1016	0.6265
295.15 K, 101 kPa, x2 = 0.2458	0.6758
295.15 K, 101 kPa, x2 = 0.5664	0.9778
295.15 K, 101 kPa, x2 = 0.9204	1.808
298.15 K, 100 kPa, x2 = 0.059	0.6108
298.15 K, 100 kPa, x2 = 0.1169	0.6226
298.15 K, 100 kPa, x2 = 0.2295	0.6135
298.15 K, 100 kPa, x2 = 0.2843	0.6582
298.15 K, 100 kPa, x2 = 0.3733	0.7116
298.15 K, 100 kPa, x2 = 0.5437	0.8989
298.15 K, 100 kPa, x2 = 0.6252	1.017
298.15 K, 100 kPa, x2 = 0.7044	1.166
298.15 K, 100 kPa, x2 = 0.7814	1.289
298.15 K, 100 kPa, x2 = 0.8563	1.469
298.15 K, 100 kPa, x2 = 0.9291	1.719
298.15 K, 101 kPa, x1 = 0.062	1.707
298.15 K, 101 kPa, x1 = 0.1398	1.471
298.15 K, 101 kPa, x1 = 0.295	1.132
298.15 K, 101 kPa, x1 = 0.388	0.988
298.15 K, 101 kPa, x1 = 0.4349	0.565
298.15 K, 101 kPa, x1 = 0.4661	0.887
298.15 K, 101 kPa, x1 = 0.5335	0.394
298.15 K, 101 kPa, x1 = 0.5337	0.805
298.15 K, 101 kPa, x1 = 0.6049	0.741
298.15 K, 101 kPa, x1 = 0.6086	0.4578
298.15 K, 101 kPa, x1 = 0.7128	0.657
298.15 K, 101 kPa, x1 = 0.806	0.626
298.15 K, 101 kPa, x1 = 0.89	0.604
298.15 K, 101.3 kPa, x1 = 0.1571	1.435
298.15 K, 101.3 kPa, x1 = 0.3573	1.018
298.15 K, 101.3 kPa, x1 = 0.5287	0.797
298.15 K, 101.3 kPa, x1 = 0.7516	0.637
298.15 K, 101.33 kPa, x1 = 0.1571	1.435
298.15 K, 101.33 kPa, x1 = 0.2757	1.167
298.15 K, 101.33 kPa, x1 = 0.3573	1.018
298.15 K, 101.33 kPa, x1 = 0.5287	0.797
298.15 K, 101.33 kPa, x1 = 0.6446	0.703
298.15 K, 101.33 kPa, x1 = 0.7516	0.637
298.15 K, 101.33 kPa, x1 = 0.8737	0.599
298.15 K, 101.33 kPa, x1 = 0.9369	0.592
298.15 K, 101.33 kPa, x2 = 0.2	0.622
303.15 K, 101 kPa, x1 = 0.062	1.522
303.15 K, 101 kPa, x1 = 0.1398	1.319
303.15 K, 101 kPa, x1 = 0.295	1.021
303.15 K, 101 kPa, x1 = 0.388	0.892
303.15 K, 101 kPa, x1 = 0.4661	0.808
303.15 K, 101 kPa, x1 = 0.5337	0.737
303.15 K, 101 kPa, x1 = 0.6049	0.68
303.15 K, 101 kPa, x1 = 0.7128	0.609
303.15 K, 101 kPa, x1 = 0.806	0.58
303.15 K, 101 kPa, x1 = 0.89	0.566
308.15 K, 100 kPa, x2 = 0.059	0.5422
308.15 K, 100 kPa, x2 = 0.1169	0.5507
308.15 K, 100 kPa, x2 = 0.2295	0.5825
308.15 K, 100 kPa, x2 = 0.2843	0.5616
308.15 K, 100 kPa, x2 = 0.3733	0.6014
308.15 K, 100 kPa, x2 = 0.5437	0.7483
308.15 K, 100 kPa, x2 = 0.6252	0.8508
308.15 K, 100 kPa, x2 = 0.7044	0.9663
308.15 K, 100 kPa, x2 = 0.7814	1.098
308.15 K, 100 kPa, x2 = 0.8563	1.267
308.15 K, 100 kPa, x2 = 0.9291	1.405
308.15 K, 101 kPa, x1 = 0.062	1.369
308.15 K, 101 kPa, x1 = 0.1398	1.182
308.15 K, 101 kPa, x1 = 0.295	0.921
308.15 K, 101 kPa, x1 = 0.388	0.81
308.15 K, 101 kPa, x1 = 0.4661	0.736
308.15 K, 101 kPa, x1 = 0.5337	0.678
308.15 K, 101 kPa, x1 = 0.6049	0.63
308.15 K, 101 kPa, x1 = 0.7128	0.566
308.15 K, 101 kPa, x1 = 0.806	0.541
308.15 K, 101 kPa, x1 = 0.89	0.527
308.15 K, 101.3 kPa, x1 = 0.1571	1.155
308.15 K, 101.3 kPa, x1 = 0.3573	0.834
308.15 K, 101.3 kPa, x1 = 0.5287	0.668
308.15 K, 101.3 kPa, x1 = 0.7516	0.552
308.15 K, 101.33 kPa, x1 = 0.1571	1.155
308.15 K, 101.33 kPa, x1 = 0.3573	0.834
308.15 K, 101.33 kPa, x1 = 0.5287	0.668
308.15 K, 101.33 kPa, x1 = 0.7516	0.552
313.15 K, 101 kPa, x1 = 0.062	1.225
313.15 K, 101 kPa, x1 = 0.1398	1.061
313.15 K, 101 kPa, x1 = 0.295	0.835
313.15 K, 101 kPa, x1 = 0.388	0.739
313.15 K, 101 kPa, x1 = 0.4661	0.674
313.15 K, 101 kPa, x1 = 0.5337	0.623
313.15 K, 101 kPa, x1 = 0.6049	0.582
313.15 K, 101 kPa, x1 = 0.7	0.5283
313.15 K, 101 kPa, x1 = 0.7128	0.528
313.15 K, 101 kPa, x1 = 0.806	0.503
313.15 K, 101 kPa, x1 = 0.89	0.493
318.15 K, 101 kPa, x1 = 0.062	1.103
318.15 K, 101 kPa, x1 = 0.1398	0.956
318.15 K, 101 kPa, x1 = 0.295	0.76
318.15 K, 101 kPa, x1 = 0.388	0.676
318.15 K, 101 kPa, x1 = 0.4661	0.617
318.15 K, 101 kPa, x1 = 0.5337	0.572
318.15 K, 101 kPa, x1 = 0.6049	0.539
318.15 K, 101 kPa, x1 = 0.7128	0.493
318.15 K, 101 kPa, x1 = 0.806	0.47
318.15 K, 101 kPa, x1 = 0.89	0.463
323.15 K, 101.33 kPa, x2 = 0.2	0.44
